The results in this text go back to US20260116920A1, “HUMAN TRANSFERRIN RECEPTOR BINDING PEPTIDE” (PEPTIDREAM INC., priority 2021, published 2026).

The structures appear in SMILES notation. Starred links: 1 amine or outer side, 2 acyl side, 3 side chain; linkers in the order of their positions; H or OH if unused. Positions of bridges follow the written chain, without caps; N, C: chain ends. Non-standard residues stand in square brackets, D forms with d. Residues, ends and D or L forms follow the SMILES beside them. *: point of attachment. Trp(1-CH2COOH) = N[C@@H](Cc1cn(CC(=O)O)c2ccccc12)C(=O)O; NMePhe(4-COOH) = CN[C@@H](Cc1ccc(C(=O)O)cc1)C(=O)O; X1 = O=C([C@H](Cc1cccc(C(=O)[*:3])c1)N[*:1])[*:2]; Nle(6-morpholino) = N[C@@H](CCCCN1CCOCC1)C(=O)O; Phe(3-COOH) = N[C@@H](Cc1cccc(C(=O)O)c1)C(=O)O; Trp(7-aza) = N[C@@H](Cc1c[nH]c2ncccc12)C(=O)O; NH(CH2CH2O)8Me = COCCOCCOCCOCCOCCOCCOCCOCCN*; NMePhe(3-Cl) = CN[C@@H](Cc1cccc(Cl)c1)C(=O)O; 3Pal(6-NH2) = Nc1ccc(C[C@H](N)C(=O)O)cn1; X2 = COCCOCCOCCOCCOCCOCCOCCOCCNC(=O)C*; NMeY = CN[C@@H](Cc1ccc(O)cc1)C(=O)O; 4Pal = N[C@@H](Cc1ccncc1)C(=O)O; PEG4 = NCCOCCOCCOCCOCCC(=O)O; Carboxymethyl = O=C(O)C* Some results are limits rather than exact numbers.

For this assay, the target named is T1, human transferrin receptor (hTfR) (Homo sapiens, UniProt P02786).
T1 construct: made in house
T1 sequence (P02786 89-760 limits assumed): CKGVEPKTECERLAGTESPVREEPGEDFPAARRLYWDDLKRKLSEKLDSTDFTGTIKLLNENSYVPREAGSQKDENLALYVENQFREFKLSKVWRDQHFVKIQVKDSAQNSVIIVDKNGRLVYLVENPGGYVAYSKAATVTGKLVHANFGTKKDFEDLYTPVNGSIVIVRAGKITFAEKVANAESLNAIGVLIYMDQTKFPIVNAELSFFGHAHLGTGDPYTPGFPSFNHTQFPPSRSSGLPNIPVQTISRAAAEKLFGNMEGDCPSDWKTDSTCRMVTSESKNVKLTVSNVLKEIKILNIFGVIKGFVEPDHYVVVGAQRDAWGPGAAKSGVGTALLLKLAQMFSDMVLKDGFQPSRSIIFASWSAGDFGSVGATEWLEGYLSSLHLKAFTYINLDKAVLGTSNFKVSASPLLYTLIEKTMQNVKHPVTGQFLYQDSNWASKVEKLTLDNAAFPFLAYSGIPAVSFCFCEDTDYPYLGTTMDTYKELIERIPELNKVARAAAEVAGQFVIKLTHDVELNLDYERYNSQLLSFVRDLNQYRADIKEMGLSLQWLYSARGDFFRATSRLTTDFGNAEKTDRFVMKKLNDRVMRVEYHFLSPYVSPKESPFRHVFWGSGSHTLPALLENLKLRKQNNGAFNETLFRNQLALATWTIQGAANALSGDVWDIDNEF
The assay is described as follows: Evaluation of molecular interaction between transferrin receptor (hTfR) and peptide using surface plasmon resonance (SPR). The assay is classed as binding. The conditions noted are these: peptide with linker, surface plasmon resonance; read-out: SPR (KD class for binding to hTfR). Put shortly: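 Single-cycle SPR kinetics, KD by least-squares sensorgram fitting, with peptide series of 100, 50, 25, 10 and 5 nM. Running buffer: 10 mM HEPES pH 8.0, 150 mM NaCl, 0.05% Tween 20, 0.1% BSA, 1.0% DMSO. Surface: hTfR dimer covalently coupled (EDC/NHS) onto Ni-NTA chip.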
Turning to `CC[C@H](C)[C@@H]1NC(=O)[C@H](Cc2ccc(OCC(=O)O)cc2)NC(=O)[C@H](Cc2ccc(O)cc2)NC(=O)[C@H](CC(N)=O)NC(=O)[C@H](Cc2c[nH]c3ncccc23)NC(=O)[C@H](C(C)C)NC(=O)[C@H](Cc2cccc(Cl)c2)N(C)C(=O)[C@H](C(C)C)NC(=O)[C@H](C)NC(=O)CSC[C@@H](C(=O)NCCOCCOCCOCCOCCC(N)=O)NC(=O)[C@H](Cc2ccc(O)cc2)N(C)C(=O)[C@H](Cc2ccncc2)NC(=O)[C@H](CCCNC(=N)N)NC(=O)[C@H](CCC(=O)NCCOCCOCCOCCOCCOCCOCCOCCOC)NC(=O)[C@H]([C@@H](C)CC)NC1=O` [compound 218], the Kd lay in the range of 1 to 100 nM. The result for `CC[C@H](C)[C@@H]1NC(=O)[C@H](Cc2ccc(OCC(=O)O)cc2)NC(=O)[C@H](Cc2ccc(O)cc2)NC(=O)[C@H](CC(N)=O)NC(=O)[C@H](Cc2cn(CC(=O)O)c3ccccc23)NC(=O)[C@H](C(C)C)NC(=O)[C@H](Cc2cccc(Cl)c2)N(C)C(=O)[C@H](C(C)C)NC(=O)[C@H](C)NC(=O)CSC[C@@H](C(=O)NCCOCCOCCOCCOCCC(N)=O)NC(=O)[C@H](Cc2ccc(O)cc2)N(C)C(=O)[C@H](Cc2ccncc2)NC(=O)[C@H](CCCCN2CCOCC2)NC(=O)[C@H](CCC(=O)NCCOCCOCCOCCOCCOCCOCCOCCOC)NC(=O)[C@H]([C@@H](C)CC)NC1=O` [compound 219] reads 1 to 100 nM; that for `CC[C@H](C)[C@@H]1NC(=O)[C@H](Cc2ccc(OCC(=O)O)cc2)NC(=O)[C@H](Cc2ccc(O)cc2)NC(=O)[C@H](CC(N)=O)NC(=O)[C@H](Cc2c[nH]c3ncccc23)NC(=O)[C@H](C(C)C)NC(=O)[C@H](Cc2cccc(Cl)c2)N(C)C(=O)[C@H](C(C)C)NC(=O)[C@H](C)NC(=O)CSC[C@@H](C(=O)NCCOCCOCCOCCOCCC(N)=O)NC(=O)[C@H](Cc2ccc(O)cc2)N(C)C(=O)[C@H](Cc2cccc(C(=O)O)c2)NC(=O)[C@H](CCCCN2CCOCC2)NC(=O)[C@H](CCC(=O)NCCOCCOCCOCCOCCOCCOCCOCCOC)NC(=O)[C@H]([C@@H](C)CC)NC1=O` [compound 220] ({CH2CO}-AV[NMePhe(3-Cl)]V[Trp(7-aza)]NYY(Carboxymethyl)IIE(NH(CH2CH2O)8Me)[Nle(6-morpholino)][Phe(3-COOH)][NMeY]C[PEG4]-NH2; thioether N-15), 1 to 100 nM; that for `CC[C@H](C)[C@@H]1NC(=O)[C@H](Cc2ccc(OCC(=O)O)cc2)NC(=O)[C@H](Cc2ccc(O)cc2)NC(=O)[C@H](CC(N)=O)NC(=O)[C@H](Cc2c[nH]c3ncccc23)NC(=O)[C@H](C(C)C)NC(=O)[C@H](Cc2cccc(Cl)c2)N(C)C(=O)[C@H](C(C)C)NC(=O)[C@H](C)NC(=O)CSC[C@@H](C(=O)NCCOCCOCCOCCOCCC(N)=O)NC(=O)[C@H](Cc2ccc(O)cc2)N(C)C(=O)[C@H](CCC(=O)NCCOCCOCCOCCOCCOCCOCCOCCOC)NC(=O)[C@H](CCCNC(=N)N)NC(=O)[C@H](CCC(=O)NCCOCCOCCOCCOCCOCCOCCOCCOC)NC(=O)[C@H]([C@@H](C)CC)NC1=O` [compound 221] ({CH2CO}-AV[NMePhe(3-Cl)]V[Trp(7-aza)]NYY(Carboxymethyl)IIE(NH(CH2CH2O)8Me)RE(NH(CH2CH2O)8Me)[NMeY]C[PEG4]-NH2; thioether N-15), 1 to 100 nM. Take `CC[C@H](C)[C@@H]1NC(=O)[C@H](Cc2ccc(OCC(=O)O)cc2)NC(=O)[C@H](Cc2ccc(N)nc2)NC(=O)[C@H](CC(N)=O)NC(=O)[C@H](Cc2cn(CC(=O)O)c3ccccc23)NC(=O)[C@H](C(C)C)NC(=O)[C@H](Cc2cccc(Cl)c2)N(C)C(=O)[C@H](C(C)C)NC(=O)[C@H](C)NC(=O)CSC[C@@H](C(=O)NCCOCCOCCOCCOCCC(N)=O)NC(=O)[C@H](Cc2ccc(O)cc2)N(C)C(=O)[C@H](Cc2ccncc2)NC(=O)[C@H](CCCNC(=N)N)NC(=O)[C@H](CCC(=O)NCCOCCOCCOCCOCCOCCOCCOCCOC)NC(=O)[C@H]([C@@H](C)CC)NC1=O` [compound 222]: the Kd was in the range of 1 to 100 nM.

Take `CC[C@H](C)[C@@H]1NC(=O)[C@H](Cc2ccc(OCC(=O)O)cc2)NC(=O)[C@H](Cc2ccc(N)nc2)NC(=O)[C@H](CC(N)=O)NC(=O)[C@H](Cc2cn(CC(=O)O)c3ccccc23)NC(=O)[C@H](C(C)C)NC(=O)[C@H](Cc2cccc(Cl)c2)N(C)C(=O)[C@H](C(C)C)NC(=O)[C@H](C)NC(=O)CSC[C@@H](C(=O)NCCOCCOCCOCCOCCC(N)=O)NC(=O)[C@H](Cc2ccc(O)cc2)N(C)C(=O)[C@H](Cc2cccc(C(=O)O)c2)NC(=O)[C@H](CCCNC(=N)N)NC(=O)[C@H](CCC(=O)NCCOCCOCCOCCOCCOCCOCCOCCOC)NC(=O)[C@H]([C@@H](C)CC)NC1=O` [compound 223] ({CH2CO}-AV[NMePhe(3-Cl)]V[Trp(1-CH2COOH)]N[3Pal(6-NH2)]Y(Carboxymethyl)IIE(NH(CH2CH2O)8Me)R[Phe(3-COOH)][NMeY]C[PEG4]-NH2; thioether N-15): the Kd fell in the range of 1 to 100 nM. To `CC[C@H](C)[C@@H]1NC(=O)[C@H](Cc2ccc(OCC(=O)O)cc2)NC(=O)[C@H](Cc2ccc(N)nc2)NC(=O)[C@H](CC(N)=O)NC(=O)[C@H](Cc2c[nH]c3ncccc23)NC(=O)[C@H](C(C)C)NC(=O)[C@H](Cc2cccc(Cl)c2)N(C)C(=O)[C@H](C(C)C)NC(=O)[C@H](C)NC(=O)CSC[C@@H](C(=O)NCCOCCOCCOCCOCCC(N)=O)NC(=O)[C@H](Cc2ccc(O)cc2)N(C)C(=O)[C@H](Cc2ccncc2)NC(=O)[C@H](CCCNC(=N)N)NC(=O)[C@H](CCC(=O)NCCOCCOCCOCCOCCOCCOCCOCCOC)NC(=O)[C@H]([C@@H](C)CC)NC1=O` [compound 224] belongs 1 to 100 nM; to `CC[C@H](C)[C@@H]1NC(=O)[C@H](Cc2ccc(OCC(=O)O)cc2)NC(=O)[C@H](Cc2ccc(O)cc2)NC(=O)[C@H](CC(N)=O)NC(=O)[C@H](Cc2c[nH]c3ncccc23)NC(=O)[C@H](C(C)C)NC(=O)[C@H](Cc2cccc(Cl)c2)N(C)C(=O)[C@H](C(C)C)NC(=O)[C@H](C)NC(=O)CSC[C@@H](C(=O)NCCOCCOCCOCCOCCC(N)=O)NC(=O)[C@H](Cc2ccc(O)cc2)N(C)C(=O)[C@H](Cc2cccc(C(=O)O)c2)NC(=O)[C@H](CCCNC(=N)N)NC(=O)[C@H](CCC(N)=O)NC(=O)[C@H]([C@@H](C)CC)NC1=O` [compound 225], under 1 nM; to `CC[C@H](C)[C@@H]1NC(=O)[C@H](Cc2ccc(OCC(=O)NCCOCCOCCOCCOCCOCCOCCOCCOC)cc2)NC(=O)[C@H](Cc2ccc(O)cc2)NC(=O)[C@H](CC(N)=O)NC(=O)[C@H](Cc2c[nH]c3ncccc23)NC(=O)[C@H](C(C)C)NC(=O)[C@H](Cc2cccc(Cl)c2)N(C)C(=O)[C@H](C(C)C)NC(=O)[C@H](C)NC(=O)CSC[C@@H](C(=O)NCCOCCOCCOCCOCCC(N)=O)NC(=O)[C@H](Cc2ccc(C(=O)NCCOCCOCCOCCOCCOCCOCCOCCOC)cc2)N(C)C(=O)[C@H](Cc2cccc(C(=O)NCCOCCOCCOCCOCCOCCOCCOCCOC)c2)NC(=O)[C@H](CCC(N)=O)NC(=O)[C@H](CCC(N)=O)NC(=O)[C@H]([C@@H](C)CC)NC1=O` [compound 226] ({CH2CO}-AV[NMePhe(3-Cl)]V[Trp(7-aza)]NYY(X2)IIQQ[X1](NH(CH2CH2O)8Me)[NMePhe(4-COOH)](NH(CH2CH2O)8Me)C[PEG4]-NH2; thioether N-15), 1 to 100 nM. To `CC[C@H](C)[C@@H]1NC(=O)[C@H](Cc2ccc(OCC(=O)NCCOCCOCCOCCOCCOCCOCCOCCOC)cc2)NC(=O)[C@H](Cc2ccc(O)cc2)NC(=O)[C@H](CC(N)=O)NC(=O)[C@H](Cc2c[nH]c3ncccc23)NC(=O)[C@H](C(C)C)NC(=O)[C@H](Cc2cccc(Cl)c2)N(C)C(=O)[C@H](C(C)C)NC(=O)[C@H](C)NC(=O)CSC[C@@H](C(=O)NCCOCCOCCOCCOCCC(N)=O)NC(=O)[C@H](Cc2ccc(C(=O)NCCOCCOCCOCCOCCOCCOCCOCCOC)cc2)N(C)C(=O)[C@H](Cc2ccncc2)NC(=O)[C@H](CCC(N)=O)NC(=O)[C@H](CCC(N)=O)NC(=O)[C@H]([C@@H](C)CC)NC1=O` [compound 227] ({CH2CO}-AV[NMePhe(3-Cl)]V[Trp(7-aza)]NYY(X2)IIQQ[4Pal][NMePhe(4-COOH)](NH(CH2CH2O)8Me)C[PEG4]-NH2; thioether N-15) belongs 1 to 100 nM. The result for `CC[C@H](C)[C@@H]1NC(=O)[C@H](Cc2ccc(OC)cc2)NC(=O)[C@H](Cc2ccc(O)cc2)NC(=O)[C@H](CC(N)=O)NC(=O)[C@H](Cc2c[nH]c3ncccc23)NC(=O)[C@H](C(C)C)NC(=O)[C@H](Cc2cccc(Cl)c2)N(C)C(=O)[C@H](C(C)C)NC(=O)[C@H](C)NC(=O)CSC[C@@H](C(=O)NCCOCCOCCOCCOCCC(N)=O)NC(=O)[C@H](Cc2ccc(C(=O)NCCOCCOCCOCCOCCOCCOCCOCCOC)cc2)N(C)C(=O)[C@H](Cc2cccc(C(=O)NCCOCCOCCOCCOCCOCCOCCOCCOC)c2)NC(=O)[C@H](CCC(N)=O)NC(=O)[C@H](CCC(N)=O)NC(=O)[C@H]([C@@H](C)CC)NC1=O` [compound 228] ({CH2CO}-AV[NMePhe(3-Cl)]V[Trp(7-aza)]NYY(Me)IIQQ[X1](NH(CH2CH2O)8Me)[NMePhe(4-COOH)](NH(CH2CH2O)8Me)C[PEG4]-NH2; thioether N-15) reads 1 to 100 nM; that for `CC[C@H](C)[C@@H]1NC(=O)[C@H](Cc2ccc(OCC(=O)NCCOCCOCCOCCOCCOCCOCCOCCOC)cc2)NC(=O)[C@H](Cc2ccc(O)cc2)NC(=O)[C@H](CC(N)=O)NC(=O)[C@H](Cc2c[nH]c3ncccc23)NC(=O)[C@H](C(C)C)NC(=O)[C@H](Cc2cccc(Cl)c2)N(C)C(=O)[C@H](C(C)C)NC(=O)[C@H](C)NC(=O)CSC[C@@H](C(=O)NCCOCCOCCOCCOCCC(N)=O)NC(=O)[C@H](Cc2ccc(O)cc2)N(C)C(=O)[C@H](Cc2cccc(C(=O)NCCOCCOCCOCCOCCOCCOCCOCCOC)c2)NC(=O)[C@H](CCC(N)=O)NC(=O)[C@H](CCC(N)=O)NC(=O)[C@H]([C@@H](C)CC)NC1=O` [compound 229] ({CH2CO}-AV[NMePhe(3-Cl)]V[Trp(7-aza)]NYY(X2)IIQQ[X1](NH(CH2CH2O)8Me)[NMeY]C[PEG4]-NH2; thioether N-15), 1 to 100 nM.

Usually Kd stands for the constant that tells how readily two partners part at equilibrium.
